Measurements from BindingDB's records for doi:10.1016/j.ejmech.2018.08.031 (Wenzhou Medical University, 2018).

Assay: Inhibition of recombinant human GST-tagged EGFR L858R mutant cytoplasmic domain expressed in baculovirus expression system using FAM-labeled peptide as substrate after 10 mins by mobility shift assay
For `COc1cc(Nc2cc(Nc3ccc(Cl)cc3)ncn2)cc(OC)c1OC`, the IC50 was greater than 10000 nM. Molecule `CCOc1ccc(Nc2cc(NC(=O)c3ccccc3)ncn2)cc1` has an IC50 of 1210 nM. With `O=C(O)CCCC(=O)Nc1cc(N2CCOCC2)ncn1` the IC50 was 27 nM. For `COc1ccc(OC)c(Nc2cc(NC(=O)CCCC(=O)O)ncn2)c1`, the IC50 was greater than 10000 nM. `COc1ccc(OC)c(Nc2cc(NCCc3cccs3)ncn2)c1` showed an IC50 of 167 nM. In the case of `COc1cccc(Nc2cc(NC(=O)CCCC(=O)O)ncn2)c1`, the IC50 is reported as 31 nM. In the case of `COc1cccc(Nc2cc(Nc3ccc(S(N)(=O)=O)cc3)ncn2)c1`, the IC50 is reported as 1850 nM. `COc1ccc(OC)c(Nc2cc(Nc3ccc(N4CCN(C)CC4)cc3)ncn2)c1` gave an IC50 of 167 nM. In the case of `COc1ccc(Nc2cc(NC(=O)c3ccccc3)ncn2)cc1`, the IC50 is reported as 60 nM. `O=C(O)CCCC(=O)Nc1cc(Nc2ccc(Cl)cc2)ncn1` gave an IC50 of 1320 nM. `O=C(O)CCCC(=O)Nc1cc(Nc2cccc(Br)c2)ncn1` gave an IC50 greater than 10000 nM. With `COc1ccc(OC)c(Nc2cc(Nc3ccc(S(N)(=O)=O)cc3)ncn2)c1` the IC50 was 619 nM. `CCNc1cc(Nc2cccc(Cl)c2)ncn1` gave an IC50 greater than 10000 nM. With `CCOC(=O)c1ccc(Nc2cc(Nc3cccc(OC)c3)ncn2)cc1` the IC50 was 1740 nM. For `COc1ccc(OC)c(Nc2cc(Nc3ccc(F)cc3)ncn2)c1`, the IC50 was 230 nM. With `O=C(Nc1cc(Nc2ccc(Cl)cc2)ncn1)c1ccc(F)cc1` the IC50 was 1610 nM. Molecule `O=C(O)CCCC(=O)Nc1cc(Nc2ccccc2)ncn1` has an IC50 of 183 nM. Molecule `CCOC(=O)c1ccc(Nc2cc(NC(=O)CCCC(=O)O)ncn2)cc1` has an IC50 of 69 nM. Molecule `CCOC(=O)CCC(=O)Nc1cc(Nc2cccc(Br)c2)ncn1` has an IC50 of 1340 nM. For `CCOC(=O)CCCC(=O)Nc1cc(Nc2cccc(Cl)c2)ncn1`, the IC50 was greater than 10000 nM. `COc1cccc(Nc2cc(Nc3cccc(Cl)c3)ncn2)c1` gave an IC50 of 1570 nM.
